Legend:
[1] = molecular target: Histone acetyltransferase KAT7 (Homo sapiens, UniProt O95251); assay: Acetyltransferase Biochemical Assay
Experimental: (§1) The reactions were performed in assay buffer (100 mM Tris-HCl, pH7.8, 15 mM NaCl, 1 mM EDTA, 0.01% Tween-20, 1 mM Dithiothreitol and 0.01% m/v chicken egg white albumin). […] 11-point dilution series of the test compounds were prepared in DMSO; a volume of 100 nL was transferred using a pin tool into assay plates containing substrates, […] control reactions were included on the same plates and received the same amount of DMSO as the compound treated wells. After adding all reagents, the plates were sealed with adhesive seals and incubated for 90 min at room temperature. An additional 4 uL of assay buffer containing AlphaScreen Protein A acceptor beads […] was then added.

[2] = molecular target: Histone acetyltransferase KAT5 (Homo sapiens, UniProt Q92993); assay: Acetyltransferase Biochemical Assay
Histone acetyltransferase KAT5, sequence (Q92993 whole entry): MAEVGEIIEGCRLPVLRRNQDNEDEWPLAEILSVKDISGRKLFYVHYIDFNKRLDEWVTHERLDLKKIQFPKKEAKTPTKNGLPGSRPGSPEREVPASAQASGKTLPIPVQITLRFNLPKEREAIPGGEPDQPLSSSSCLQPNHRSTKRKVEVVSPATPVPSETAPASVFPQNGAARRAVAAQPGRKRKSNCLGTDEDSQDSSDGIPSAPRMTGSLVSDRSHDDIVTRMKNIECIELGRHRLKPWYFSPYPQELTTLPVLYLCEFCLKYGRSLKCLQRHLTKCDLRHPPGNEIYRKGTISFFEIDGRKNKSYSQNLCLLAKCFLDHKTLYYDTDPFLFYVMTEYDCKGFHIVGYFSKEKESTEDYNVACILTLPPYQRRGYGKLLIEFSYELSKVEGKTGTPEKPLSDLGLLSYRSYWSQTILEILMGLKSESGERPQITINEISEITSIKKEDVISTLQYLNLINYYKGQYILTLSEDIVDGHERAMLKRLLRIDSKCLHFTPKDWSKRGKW
Experimental: as §1

Histone acetyltransferase KAT7, sequence (O95251 whole entry): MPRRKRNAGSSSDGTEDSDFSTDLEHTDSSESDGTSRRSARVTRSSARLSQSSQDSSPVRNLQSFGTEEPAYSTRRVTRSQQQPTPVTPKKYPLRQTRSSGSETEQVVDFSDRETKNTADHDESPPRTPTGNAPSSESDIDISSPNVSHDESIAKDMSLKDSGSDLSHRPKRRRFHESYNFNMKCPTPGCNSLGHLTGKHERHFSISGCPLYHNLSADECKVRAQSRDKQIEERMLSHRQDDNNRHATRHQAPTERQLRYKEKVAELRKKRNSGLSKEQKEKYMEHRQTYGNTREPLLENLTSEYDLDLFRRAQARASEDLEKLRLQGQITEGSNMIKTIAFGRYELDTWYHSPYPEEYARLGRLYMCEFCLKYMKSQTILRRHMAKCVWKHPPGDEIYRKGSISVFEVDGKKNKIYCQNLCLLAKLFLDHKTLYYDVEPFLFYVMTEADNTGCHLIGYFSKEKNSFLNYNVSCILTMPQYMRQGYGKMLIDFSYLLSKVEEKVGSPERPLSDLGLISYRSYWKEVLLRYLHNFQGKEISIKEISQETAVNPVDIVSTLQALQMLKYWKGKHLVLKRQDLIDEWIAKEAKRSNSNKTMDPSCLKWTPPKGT

`O=S(=O)(Nc1cc(-c2ccccc2)on1)C1CC1` [US20240277683, Example 29] gave an IC50 [1] greater than 125 µM and an IC50 [2] greater than 125 µM.

Compound `O=S(=O)(Nc1cc(-c2ccccc2)on1)c1ccc2c(c1)CCCC2` [US20240277683, Example 76] has an IC50 [2] greater than 125 µM.

For `COc1ccccc1-c1nnc(NS(=O)(=O)C2CCNCC2)s1` [US20240277683, Example 129], the IC50 [2] was greater than 125 µM.

Source: BindingDB's records for patent US20240277683 (Ctxt, 2024)
